These are literature values, as cited in US7195882B2, “Monoclonal antibodies specific for buprenorphine and metabolites thereof” (priority 2003, dated 2007).

The conditions of this series: in vivo.

`CO[C@]12CC[C@@]3(C[C@@H]1[C@](C)(O)C(C)(C)C)[C@H]1Cc4ccc(O[C@@H]5O[C@H](C(=O)O)[C@@H](O)[C@H](O)[C@H]5O)c5c4[C@@]3(CCN1CC1CC1)[C@H]2O5` [buprenorphine glucuronide, buprenorphine 3-O-β-D-glucuronide]: the appearance in urine is 1 to 2 days.
